From patent US20110275703A1, “SUBSTITUTED SPIROKETAL DERIVATIVES AND USE THEREOF AS THERAPEUTIC DRUG FOR DIABETES” (CHUGAI SEIYAKU KABUSHIKI KAISHA, priority 2007, published 2011)
pIC50: −log10 of the molar value.

What was measured:
[1] = tested on: db/db mice; assay: Study for glucose lowering effect in db/db mouse; type: in vivo; conditions: Mus musculus, oral, 0.3 mg/kg, 6 hours, relative to control group, Table 3-1, read-out: Percent reduction of blood glucose (%) 6 hours after administration
Experimental: Study for Glucose Lowering Effect in dB/dB Mouse
A study for glucose lowering effect was conducted using db/db mice (purchased from Clea Japan, Inc., male, 9 to 11 weeks old), type 2 diabetic model mice. On the day of the study, body weights and blood glucose levels were measured prior to the start of testing. Measurement of the blood glucose levels was performed using a simple blood glucose meter (manufactured by Bayer HealthCare, Dexter-Z II). The mice were allocated to some groups consisting of 5 mice each so that homogeneity of body weights or blood glucose levels among groups would be ensured. Blood collection was carried out by making an incision on the tip of the tail and taking the blood therefrom. On the day of the study, the test compounds were suspended in 0.5% carboxymethylcellulose solution (CMC solution), and the dosing solutions of which concentration was adjusted to either 0.3 mg/10 mL or 3 mg/10 mL were prepared. The dosing solutions were orally administered by gavage for mice in 10 mL/kg. To the control group, only a 0.5% CMC solution was orally administered in 10 mL/kg. Blood was collected prior to or sequentially after administration of test compounds by above method. The blood glucose levels were determined using a hexokinase method (AutoSera S GLU, manufactured by Daiichi Pure Chemicals Co., Ltd.). A percent reduction of blood glucose relative to control group at each time point after administration of test compounds was calculated by the following equation.
Percent reduction of blood glucose (%)={blood glucose level in the control group (mg/dL)-blood glucose level in the test compound group (mg/dL)}/blood glucose level in the control group (mg/dL)×100

[2] = target: T1, human SGLT2 (Homo sapiens, UniProt P31639); assay: Inhibitory activity against methyl-α-D-glucopyranoside uptake, CHO cells stably expressing human SGLT2; type: cell-based; conditions: inhibition of SGLT2, Table 2-1; read-out: IC50 value
T1 construct: expressed in transfected cells; host or cells: CHO-K1
T1 sequence (P31639 1-672): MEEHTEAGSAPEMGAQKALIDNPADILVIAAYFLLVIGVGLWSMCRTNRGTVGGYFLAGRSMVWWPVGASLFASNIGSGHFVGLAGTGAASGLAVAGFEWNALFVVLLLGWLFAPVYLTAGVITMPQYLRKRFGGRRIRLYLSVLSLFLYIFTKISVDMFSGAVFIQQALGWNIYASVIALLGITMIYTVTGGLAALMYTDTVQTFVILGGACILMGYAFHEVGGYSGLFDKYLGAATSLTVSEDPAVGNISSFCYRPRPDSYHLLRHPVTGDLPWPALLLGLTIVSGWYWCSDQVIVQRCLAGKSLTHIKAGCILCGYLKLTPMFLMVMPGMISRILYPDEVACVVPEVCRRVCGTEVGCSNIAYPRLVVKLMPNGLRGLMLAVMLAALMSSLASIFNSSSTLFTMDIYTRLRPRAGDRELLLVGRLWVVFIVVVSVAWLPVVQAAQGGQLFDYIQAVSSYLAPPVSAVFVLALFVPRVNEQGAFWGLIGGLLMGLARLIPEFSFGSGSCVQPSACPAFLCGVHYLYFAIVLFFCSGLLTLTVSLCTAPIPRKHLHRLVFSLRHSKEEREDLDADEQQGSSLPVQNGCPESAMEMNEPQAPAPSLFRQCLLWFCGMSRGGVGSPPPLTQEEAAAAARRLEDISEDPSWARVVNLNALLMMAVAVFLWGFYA
Text: Evaluation of inhibitory activity against methyl-α-D-glucopyranoside uptake of human Na^+-glucose cotransporter (SGLT1 and SGLT2)
2) Construction of Human SGLT2 Expression Vector
Human SGLT2 cDNA was amplified by PCR with a cDNA library derived from human kidney (Clontech) as a template, synthetic DNA primers and KOD+ DNA Polymerase. The amplified cDNA was inserted into pcRII-Topo vector by using a Topo TA Cloning Dual Promoter kit. E. coli competent cells (TPO10) were transformed with the plasmid vector, cultured in LB medium containing ampicillin (50 mg/L) to grow ampicillin-resistant clones. The plasmid vector containing human SGLT2 cDNA was purified from the clone in a standard manner. Human SGLT2 cDNA added restriction enzyme recognition sites (Xho I at 5′-end, Hind III at 3′-end) was amplified by PCR with the plasmid vector as a template, synthetic DNA primers containing an additional restriction enzyme recognition site and KOD+ DNA Polymerase. This amplified cDNA was digested with Xho I and Hind III, and ligated into expression vector pcDNA3.1(−) digested with Xho I and Hind III by using a Rapid DNA Ligation kit. E. coli competent cells (DH5α) were transformed with the ligated expression vector and grown in ampicillin-containing LB medium. Human SGLT2 expression vector was purified from the ampicillin-resistant clone in a standard manner.
3) Establishment of Cell Lines Stably Expressing Human SGLT1 or Human SGLT2
The human SGLT1 expression vector or the human SGLT2 expression vector was digested with the restriction enzyme Pvu I and transfected into CHO-Kl cells with FuGENE (Roche Diagonostics). After the transfection, the cells were cultured at 37° C. in the presence of 5% CO2 for about 3 weeks in DMEM medium (Gibco) containing penicillin (50 U/mL, SIGMA), streptomycin (50 mg/L, SIGMA), geneticin (200 mg/L, Nacalai Tesque, Inc., Japan) and 20% fetal bovine serum to obtain geneticin-resistant clones. Among these clones, clones stably expressing human SGLT1 or human SGLT2 were selected by the evaluating the sodium-dependent uptake activity of sugar (methyl-α-D-glucopyranoside).
4) Evaluation of Inhibitory Activity Against methyl-α-D-glucopyranoside uptake
Cell lines stably expressing human SGLT1 or human SGLT2 CHO were seeded in 96-well culture plates at a density of 30000 to 40000 cells/well and cultured for 4 to 6 days. The medium in these plates was removed and replaced by 150 μL/well pretreatment buffer (i.e., a buffer containing 140 mM choline chloride, 2 mM potassium chloride, 1 mM calcium chloride, 1 mM magnesium chloride, 10 mM 2-[4-(2-hydroxyethyl)-1-piperazinyl]ethanesulfonic acid and tris(hydroxymethyl)aminomethane, pH 7.4), and the plates were incubated at 37° C. for 20 minutes. The pretreatment buffer in the plates was removed, replaced by 50 μL/well fresh pretreatment buffer, and the plates were incubated at 37° C. for 20 minutes. Methyl-α-D-(U—^14C)glucopyranoside (6.3 mL, Amersham Pharmacia Biotech, 200 mCi/L) was added to and mixed with 100 mL buffer (i.e., a buffer containing 140 mM sodium chloride, 2 mM potassium chloride, 1 mM calcium chloride, 1 mM magnesium chloride, 1 mM methyl-α-D-glucopyranoside, 10 mM [4-(2-hydroxyethyl)-1-piperazinyl]ethanesulfonic acid and tris(hydroxymethyl)aminomethane, pH 7.4), which was used as uptake buffer. Test compounds were dissolved into uptake buffer and these test compound solutions were used for evaluating inhibitory activity. Uptake buffer without a test compound was used as a control solution. Moreover, for use in measuring baseline uptake in the absence of sodium, sodium-free solution was prepared in the same manner to contain 140 mM choline chloride instead of sodium chloride. The pretreatment buffer was removed from each well of the plates and replaced by 35 μL/well test compound solutions, control solution or sodium-free solution, and the plates were incubated at 37° C. for 45 minutes. […]

pIC50 [2]: 8.59
SMILES: CCOc1ccc(Cc2cc3c(cc2F)CO[C@]32O[C@H](CO)[C@@H](O)[C@H](O)[C@H]2O)cc1 [Example 17, (1S,3′R,4′S,5′S,6′R)-6-[(4-ethoxyphenyl)methyl]-5-fluoro-3′,4′,5′,6′-tetrahydro-6′-(hydroxymethyl)-spiro[isobenzofuran-1(3H),2′-[2H]pyran]-3′,4′,5′-triol]
inhibition in vivo at 0.3 mg/kg [1]: 33%
